{"source": "patent EP1721614A1", "about": "“Epirubicine hydrochloride for treating hepatitis C virus” (Institut National de la Santé et de la Recherche Médicale …, priority 2005, dated 2006)", "key": {"[1]": {"settings": "cited from earlier work"}, "[2]": {"test": "in vitro", "settings": "human, huh7 cells"}, "[3]": {"system": "HCV subgenomic replicon stably transfected into Huh7 cell lines (clone BM4.5)", "test": "anti-HCV activity in HCV subgenomic replicon system (Northern blot of HCV RNA, normalised to actin)", "type": "cell-based, hepatitis C virus (HCV)", "procedure": "The potential antiviral (anti HCV) activity of epirubicin hydrochloride was tested in in vitro cell culture model using the HCV subgenomic replicon stably transfected into Huh7 cell lines (clone BM4.5) (Ju-Tao Gao et al., J Virol. 2001).\nHuh7 cells containing the HCV replicon were grown in cell culture medium in presence of varying concentration of epirubicin. The media and drug were changed everyday for 5 days. After 5 days of treatment the cells were lysed and total RNA extracted. The isolated RNA was then assayed for presence of HCV replication by Northern Blot analysis, using a HCV probe targeting the NS5B region of HCV.\nThe cell lines were treated everyday with epirubicin from concentration of 20 nM to 2 nM for 5 days and at the end of treatment RNA from the treated cells were isolated. The total RNA was then probed with a HCV specific probe using Northern blot analysis to detect the HCV RNA. The resulting blot was then exposed to phosphorimager densitometry and the viral replication quantified."}}, "note": "pIC50: −log10 of the molar value. Structures can show the parent of a compound that is named as a salt."}
{"smiles": "COc1cccc2c1C(=O)c1c(O)c3c(c(O)c1C2=O)C[C@@](O)(C(=O)CO)C[C@@H]3O[C@H]1C[C@H](N)[C@@H](O)[C@H](C)O1", "note": "[epirubicin hydrochloride, 7-O-(3'-amino-2',3',6'-trideoxy-α,β-L-arabinohexpyranosyl)-adriamycinone hydro-chloride]", "values": [{"measurement": "maximum cumulative dose", "setting": "[1]; antitumor therapy in man", "result": "900 - 1000 mg/m^2"}, {"measurement": "\"safe\" dose (total cumulative dose, Kaplan-Meier plot of cumulative probability of developing congestive heart failure)", "setting": "[1]; man", "result": "100 - 150 mg/m^2"}, {"measurement": "CC50", "setting": "[2]", "result": "> 100", "unit": "nM"}, {"measurement": "selectivity index", "setting": "[3]; CC50 in Huh7 cells versus IC50 in HCV replicon system", "result": 25}, {"measurement": "pIC50", "setting": "[3]; Hepatitis C virus, Huh-7, 120 h, Huh7 replicon cells, 5 days of treatment, Figure 2, read-out: 50% inhibitory concentration (IC50), anti-HCV activity measured in HCV replicon system", "result": "8.30 to 8.52"}]}
